Reference: patent US20060276498A1 (Wyeth, priority 2005, published 2006)
pIC50: −log10 of the molar value.

Target: T1, human Cot/Tpl2 kinase (Homo sapiens, UniProt P41279)
T1 construct: human Cot/Tpl2 kinase construct encoding residues 30-398; 6His (N); made in house; host or cells: Sf9 insect cells (baculovirus system, BD Biosciences)
Experiment: Tpl2/Cot kinase assay, GST-MEK1 phosphorylation detected by ELISA (DELFIA Eu)
Format: biochemical
Experimental: Sf9 cells expressing the kinase were lysed in 50 mM NaPhosphate pH=8; 300 mM NaCl; 5 mM imidazole; 0.1 mM EGTA; 25 mM beta-glycerophosphate; 1% TX-100, 1% glycerol; 6 mM beta-mercaptoethanol and protease inhibitors. The lysate was clarified by centrifugation and was loaded onto a Ni-Sepharose column. The column was washed with 50 mM NaPhosphate pH=8; 300 mM NaCl; 15 mM imidazole; 1% glycerol; and 6 mM beta-mercaptoethanol. His-Tpl2 was eluted with 50 mM NaPhosphate pH=8; 300 mM NaCl; 250 mM imidazole; 1% glycerol; and 6 mM beta-mercaptoethanol. The eluted protein was further purified by size exclusion chromatography. Fractions corresponding to monomeric Tpl2 were then used in the assay.
Tpl2/Cot activity was directly assayed using GST-MEK1 as a substrate. GST-MEK1 phosphorylation on serine residues 217 and 221 was detected by ELISA. 0.4 nM Tpl2 was incubated with 35 nM GST-MEK1 in a kinase reaction buffer containing 20 mM MOPS pH=7.2; 50 uM ATP; 20 mM MgCl2; 1 mM DTT; 25 mM β-glycerophosphate; 5 mM EGTA; and 1 mM sodium orthovanadate for 1 h at 30° C. The compounds of the inventions solubilized in 100% DMSO were pre-diluted in assay buffer so that the final concentration of DMSO in the reaction was 1%. The kinase reaction was carried out in 100 ul volume on 96 well plates. The kinase reaction was then stopped with the addition of 100 mM EDTA. […] After a 1 hour incubation at room temperature, the detection plate was washed 4 times with TBST (TBS+0.05% Tween 20) and then incubated for another hour at room temperature with anti phospho-MEK1 antibody (Cell Signaling) 1:1000 in 10 mM MOPS 7.5; 150 mM NaCl; 0.05% Tween 20; 0.1% Gelatin; 0.02% NaN3; and 1% BSA. The detection plate was washed again and incubated for 30 min with DELFIA Europium (Eu) labeled goat anti-rabbit IgG (Perkin-Elmer), 1:4000 in the same buffer used for the primary incubation. After a final wash, Eu detection solution was added to each well and the Eu signal was measured in a Wallac Victor^2 Multilabel Counter. IC50 calculations were preformed using the XLfit software package (IDBS, Guildford, UK).

[1] = Table 2, additional representative compounds
[2] = Table 1, 0.4 nM Tpl2, 35 nM GST-MEK1, 50 uM ATP, 1 h at 30° C.

T1 sequence (P41279 30-398): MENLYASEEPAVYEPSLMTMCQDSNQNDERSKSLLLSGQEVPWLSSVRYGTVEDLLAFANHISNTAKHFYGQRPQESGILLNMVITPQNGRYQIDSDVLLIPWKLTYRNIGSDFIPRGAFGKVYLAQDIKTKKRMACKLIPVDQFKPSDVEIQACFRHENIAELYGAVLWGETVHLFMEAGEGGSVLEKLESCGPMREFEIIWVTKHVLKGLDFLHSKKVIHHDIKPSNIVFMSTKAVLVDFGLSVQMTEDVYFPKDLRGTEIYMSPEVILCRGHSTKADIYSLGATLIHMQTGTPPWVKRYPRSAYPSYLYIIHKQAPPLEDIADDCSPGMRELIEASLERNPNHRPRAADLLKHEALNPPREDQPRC

Structure (SMILES) | pIC50 [1] | pIC50 [2]
N#Cc1cnc2cnc(NCc3cccnc3)cc2c1NC1CCNCC1 [Example 116, 4-(piperidin-4-ylamino)-6-[(pyridin-3-ylmethyl)amino]-1,7-naphthyridine-3-carbonitrile] | < 4.40 | 
CN(C)CCCNc1cc2c(Nc3ccc(Cc4ccccc4)cc3)c(C#N)cnc2cn1 [Example 21, 4-(4-benzylphenylamino)-6-(3-(dimethylamino)propylamino)-1,7-naphthyridine-3-carbonitrile] |  | 8.02
COc1ccc(CNc2cc3c(Nc4cccc(C(C)C)c4)c(C#N)cnc3cn2)cc1 [Example 38, 4-[(3-isopropylphenyl)amino]-6-[(4-methoxybenzyl)amino]-1,7-naphthyridine-3-carbonitrile] |  | < 4.40
Cn1nc(C(C)(C)C)cc1Nc1c(C#N)cnc2ccc(N)cc12 [Example 139, 6-amino-4-[(3-tert-butyl-1-methyl-1H-pyrazol-5-yl)amino]quinoline-3-carbonitrile] | 6.57 | 
CC(C)(C)Nc1cc2c(Nc3ccc(F)c(Cl)c3)c(C#N)cnc2cn1 [Example 143, 6-(tert-butylamino)-4-[(3-chloro-4-fluorophenyl)amino]-1,7-naphthyridine-3-carbonitrile] | < 4.40 | 
N#Cc1cnc2cnc(NC3CCCC3)cc2c1Nc1ccc(F)c(Cl)c1 [Example 94, 4-(3-Chloro-4-fluoro-phenylamino)-6-cyclopentylamino-[1,7]naphthyridine-3-carbonitrile] |  | 5.12
N#Cc1cnc2cnc(NCc3cccnc3)cc2c1Nc1ccc(F)cc1 [Example 9, 4-(4-fluorophenylamino)-6-(pyridin-3-ylmethylamino)-1,7-naphthyridine-3-carbonitrile] |  | 5.77
CC(C)(Nc1cc2c(Nc3ccc(F)c(Cl)c3)c(C#N)cnc2cn1)c1ccccc1 [Example 118, 4-[(3-chloro-4-fluorophenyl)amino]-6-[(1-methyl-1-phenylethyl)amino]-1,7-naphthyridine-3-carbonitrile] | 5.92 | 
CC#Cc1cccc(Nc2c(C#N)cnc3cnc(NCCN4CCOCC4)cc23)c1 [Example 79, 6-(2-morpholinoethylamino)-4-(3-(prop-1-ynyl)phenylamino)-1,7-naphthyridine-3-carbonitrile] |  | < 5.00
N#Cc1cnc2cnc(NCCN3CCOCC3)cc2c1Nc1cc(Cl)cc(Cl)c1 [Example 67, 4-[(3,5-dichlorophenyl)amino]-6-[(2-morpholin-4-ylethyl)amino]-1,7-naphthyridine-3-carbonitrile] |  | 5.38
N#Cc1cnc2cnc(NCc3cccnc3)cc2c1NCc1cccnc1 [Example 145, 4,6-bis(pyridin-3-ylmethylamino)-1,7-naphthyridine-3-carbonitrile] | < 4.40 | 
CC(Nc1cc2c(Nc3ccc(F)c(Cl)c3)c(C#N)cnc2cn1)c1ccccc1 (stereo not shown) [Example 115, 4-[(3-chloro-4-fluorophenyl)amino]-6-[(1-phenylethyl)amino]-1,7-naphthyridine-3-carbonitrile] | < 4.40 | 
N#Cc1cnc2cnc(NCCN3CCOCC3)cc2c1Nc1ccc(Oc2ccccc2)cc1 [Example 41, 6-[(2-morpholin-4-ylethyl)amino]-4-[(4-phenoxyphenyl)amino]-1,7-naphthyridine-3-carbonitrile] |  | 6.52
CCC(C)(C)Nc1c(C#N)cnc2cnc(NCc3cccnc3)cc12 [Example 135, 4-[(1,1-dimethylpropyl)amino]-6-[(pyridin-3-ylmethyl)amino]-1,7-naphthyridine-3-carbonitrile] | 7.00 | 
N#Cc1cnc2cnc(NCCN3CCOCC3)cc2c1Nc1cccc([N+](=O)[O-])c1 [Example 81, 6-(2-morpholinoethylamino)-4-(3-nitrophenylamino)-1,7-naphthyridine-3-carbonitrile] |  | 6.57
N#Cc1cnc2cnc(N[C@H]3CCCc4ccccc43)cc2c1Nc1ccc(F)c(Cl)c1 [Example 71] |  | 5.41

Structure (SMILES) | pIC50 [1] | pIC50 [2]
N#Cc1cnc2cnc(NCc3c(Cl)cccc3Cl)cc2c1NCc1c(Cl)cccc1Cl [Example 127, 4,6-bis[(2,6-dichlorobenzyl)amino]-1,7-naphthyridine-3-carbonitrile] | < 4.40 | 
N#Cc1cnc2cnc(NCCN3CCOCC3)cc2c1Nc1ccc(Cc2ccccc2)cc1 [Example 7, 4-(4-benzylphenylamino)-6-(2-morpholinoethylamino)-1,7-naphthyridine-3-carbonitrile] |  | 8.10
N#Cc1cnc2cnc(NCc3c(N)cccc3F)cc2c1Nc1ccc(F)c(Cl)c1 [Example 61, 6-[(2-amino-6-fluorobenzyl)amino]-4-[(3-chloro-4-fluorophenyl)amino]-1,7-naphthyridine-3-carbonitrile] |  | 4.98
C[C@H](Nc1cc2c(Nc3ccc(F)c(Cl)c3)c(C#N)cnc2cn1)c1ccccc1 [Example 57, 4-[(3-chloro-4-fluorophenyl)amino]-6-{[(1S)-1-phenylethyl]amino}-1,7-naphthyridine-3-carbonitrile] |  | 4.44
CCN1CCC[C@@H]1CNc1cc2c(Nc3ccc(F)c(Cl)c3)c(C#N)cnc2cn1 [Example 75] |  | 5.15
C[C@@H](Nc1cc2c(N[C@H](C)c3ccccc3)c(C#N)cnc2cn1)c1ccccc1 [Example 131, 4,6-bis{[(1R)-1-phenylethyl]amino}-1,7-naphthyridine-3-carbonitrile] | 6.25 | 
CS(=O)(=O)c1ccc(CNc2cc3c(Nc4ccc(F)c(Cl)c4)c(C#N)cnc3cn2)cc1 [Example 125, 4-[(3-chloro-4-fluorophenyl)amino]-6-{[4-(methylsulfonyl)benzyl]amino}-1,7-naphthyridine-3-carbonitrile] | 7.64 | 
Cc1ccc(Nc2c(C#N)cnc3cnc(NCc4cccnc4)cc23)cc1Br [Example 66, 4-[(3-bromo-4-methylphenyl)amino]-6-[(pyridine-3-ylmethyl)amino]-1,7-naphthyridine-3-carbonitrile] |  | < 4.40
N#Cc1cnc2cnc(N[C@@H]3CCc4ccccc43)cc2c1Nc1ccc(F)c(Cl)c1 [Example 73] |  | 6.37
CN(C)CCNc1cc2c(Nc3ccc(Cc4ccccc4)cc3)c(C#N)cnc2cn1 [Example 23, 4-(4-benzylphenylamino)-6-(2-(dimethylamino)ethylamino)-1,7-naphthyridine-3-carbonitrile] |  | 7.44
COc1ccccc1CNc1cc2c(Nc3ccc(F)c(Cl)c3)c(C#N)cnc2cn1 [Example 124, 4-[(3-chloro-4-fluorophenyl)amino]-6-[(2-methoxybenzyl)amino]-1,7-naphthyridine-3-carbonitrile] | 6.43 | 
N#Cc1cnc2cnc(NCc3cccnc3)cc2c1Nc1ccccc1 [Example 95, 4-Phenylamino-6-[(pyridin-3-ylmethyl)-amino]-[1,7]naphthyridine-3-carbonitrile] |  | 6.48
N#Cc1cnc2cnc(Nc3ccc(F)c(Cl)c3)cc2c1NC1CCCC1 [Example 92, 6-(3-chloro-4-fluorophenylamino)-4-(cyclopentylamino)-1,7-naphthyridine-3-carbonitrile] |  | 5.10
CC(C)c1cccc(Nc2c(C#N)cnc3cnc(NCCN4CCOCC4)cc23)c1 [Example 37, 4-[(3-isopropylphenyl)amino]-6-[(2-morpholin-4-ylethyl)amino]-1,7-naphthyridine-3-carbonitrile] |  | < 4.40
N#Cc1cnc2cnc(NCCN3CCOCC3)cc2c1Nc1ccc(F)cc1 [Example 4, 4-(4-fluorophenylamino)-6-(2-morpholinoethylamino)-1,7-naphthryidine-3-carbonitrile] |  | 4.97
